From patent publication US9113629B2, “4-amino-6-(4-substituted-phenyl)-picolinates and 6-amino-2-(4-substituted-phenyl)-pyrimidine-4-carboxylates and their use as herbicides” (DOW AGROSCIENCES LLC, priority 2013, dated 2015)
Read-outs that look alike come from different tables or passages of the source.

Legend:
[1] = system: Key Broadleaf Weed and Crop Species; experiment: Post-emergent Test II herbicidal activity (Table 5); type: in vivo; settings: post-emergence, 336 h, 14 days after application
Description: (§1) Post-emergent Test II: Seeds or nutlets of the desired test plant species were planted in Sun Gro Metro-Mix® 360 planting mixture, which typically has a pH of 6.0 to 6.8 and an organic matter content of about 30 percent, in plastic pots with a surface area of 64 square centimeters. When required to ensure good germination and healthy plants, a fungicide treatment and/or other chemical or physical treatment was applied. The plants were grown for 7-21 d in a greenhouse with an approximate 15 h photoperiod which was maintained at about 23-29° C. during the day and 22-28° C. during the night. Nutrients and water were added on a regular basis and supplemental lighting was provided with overhead metal halide 1000-Watt lamps as necessary. The plants were employed for testing when they reached the first or second true leaf stage.
(§2) A weighed amount, determined by the highest rate to be tested, of each test compound was placed in a 25 mL glass vial and was dissolved in 4 mL of a 97:3 v/v mixture of acetone and DMSO to obtain concentrated stock solutions. […] The concentrated stock solutions obtained were diluted with 20 mL of an aqueous mixture containing acetone, water, isopropyl alcohol, DMSO. Atplus 411F crop oil concentrate, and Triton® X-155 surfactant in a 48.5:39:10:1.5:1.0:0.02 v/v ratio to obtain spray solutions containing the highest application rates. Additional application rates were obtained by serial dilution of 12 mL of the high rate solution into a solution containing 2 mL of 97:3 v/v mixture of acetone and DMSO and 10 mL of an aqueous mixture containing acetone, water, isopropyl alcohol, DMSO, Atplus 411F crop oil concentrate, and Triton X-155 surfactant in a 48.5:39:10:1.5:1.0:0.02 v/v ratio to obtain ½×, ¼×, ⅛× and 1/16× rates of the high rate. Compound requirements are based upon a 12 mL application volume at a rate of 187 liters per hectare (L/ha). Formulated compounds were applied to the plant material with an overhead Mandel track sprayer equipped with 8002E nozzles calibrated to deliver 187 L/ha over an application area of 0.503 square meters at a spray height of 18 inches (43 cm) above the average plant canopy height. Control plants were sprayed in the same manner with the solvent blank.
(§3) The treated plants and control plants were placed in a greenhouse as described above and watered by subirrigation to prevent wash-off of the test compounds. After 14 d, the condition of the test plants as compared with that of the untreated plants was determined visually and scored on a scale of 0 to 100 percent where 0 corresponds to no injury and 100 corresponds to complete kill.

[2] = system: Key Grass and Sedge Weeds as well as Grass Crops; experiment: Post-emergent Test II herbicidal activity (Table 6); type: in vivo; settings: post-emergence, 336 h; for pest or weed control at 70 g/ha: application rate 70 g ai/ha; for pest or weed control at 140 g/ha: application rate 140 g ai/ha
Description: as §1, §2, §3

[3] = CYPES: yellow nutsedge (Cyperus esculentus), read-out: Visual Growth Reduction (%) 14 Days After Application, CYPES
[4] = DIGSA: crabgrass (Digitaria sanguinalis), read-out: Visual Growth Reduction (%) 14 Days After Application, DIGSA
[5] = ECHCG: barnyardgrass (Echinochloa crus-galli), read-out: Visual Growth Reduction (%) 14 Days After Application, ECHCG
[6] = ORYSA: rice (Oryza sativa), read-out: Visual Growth Reduction (%) 14 Days After Application, ORYSA
[7] = SETFA: giant foxtail (Setaria faberi), read-out: Visual Growth Reduction (%) 14 Days After Application, SETFA
[8] = SORVU: grain sorghum (Sorghum vulgare), read-out: Visual Growth Reduction (%) 14 Days After Application, SORVU
[9] = TRZSS (wheat, Triticum aestivum), read-out: Visual Growth Reduction (%) 14 Days After Application, TRZSS
[10] = ZEAMX: maize, corn (Zea mays), read-out: Visual Growth Reduction (%) 14 Days After Application, ZEAMX
[11] = Triticum aestivum, TRZSS (wheat), read-out: Visual Growth Reduction (%) 14 Days After Application, TRZSS

Cc1c(-c2ccc(I)c(F)c2)nc(C(=O)O)c(Cl)c1N [Compound 87, 4-Amino-3-chloro-6-(3-fluoro-4-iodophenyl)-5-methylpicolinic acid]
85 to 94%: pest or weed control at 70 g/ha ([1]; ABUTH: velvetleaf (Abutilon theophrasti), 70 g ai/ha, post-emergent, read-out: Visual Growth Reduction (%) 14 Days After Application ABUTH) | pest or weed control at 140 g/ha ([1]; ABUTH: velvetleaf (Abutilon theophrasti), 140 g ai/ha, post-emergent, read-out: Visual Growth Reduction (%) 14 Days After Application ABUTH) | pest or weed control at 70 g/ha ([1]; CHEAL: lambsquarters (Chenopodium album), 70 g ai/ha, post-emergent, read-out: Visual Growth Reduction (%) 14 Days After Application CHEAL) | pest or weed control at 140 g/ha ([1]; CHEAL: lambsquarters (Chenopodium album), 140 g ai/ha, post-emergent, read-out: Visual Growth Reduction (%) 14 Days After Application CHEAL) | pest or weed control at 70 g/ha ([1]; HELAN: sunflower (Helianthus annuus), 70 g ai/ha, post-emergent, read-out: Visual Growth Reduction (%) 14 Days After Application HELAN) | pest or weed control at 140 g/ha ([1]; HELAN: sunflower (Helianthus annuus), 140 g ai/ha, post-emergent, read-out: Visual Growth Reduction (%) 14 Days After Application HELAN) | pest or weed control at 140 g/ha ([1]; VIOTR: wild pansy (Viola tricolor), 140 g ai/ha, post-emergent, read-out: Visual Growth Reduction (%) 14 Days After Application VIOTR)
60 to 74%: pest or weed control at 70 g/ha ([1]; VIOTR: wild pansy (Viola tricolor), 70 g ai/ha, post-emergent, read-out: Visual Growth Reduction (%) 14 Days After Application VIOTR) | pest or weed control at 70 g/ha [2, 4] | pest or weed control at 140 g/ha [2, 4] | pest or weed control at 70 g/ha [2, 7] | pest or weed control at 70 g/ha [2, 8] | pest or weed control at 140 g/ha [2, 8] | pest or weed control at 70 g/ha [2, 9] | pest or weed control at 140 g/ha [2, 9] | pest or weed control at 70 g/ha [2, 10] | pest or weed control at 140 g/ha [2, 10]
95 to 100%: pest or weed control at 70 g/ha ([1]; BRSNN: oilseed-rape, canola (Brassica napus), 70 g ai/ha, post-emergent, read-out: Visual Growth Reduction (%) 14 Days After Application BRSNN) | pest or weed control at 140 g/ha ([1]; BRSNN: oilseed-rape, canola (Brassica napus), 140 g ai/ha, post-emergent, read-out: Visual Growth Reduction (%) 14 Days After Application BRSNN)
45 to 59%: pest or weed control at 140 g/ha [2, 3]
171 to 172 °C: melting point
0 to 29%: pest or weed control at 70 g/ha ([1]; EPHHL: wild poinsettia (Euphorbia heterophylla), 70 g ai/ha, post-emergent, read-out: Visual Growth Reduction (%) 14 Days After Application EPHHL) | pest or weed control at 140 g/ha ([1]; EPHHL: wild poinsettia (Euphorbia heterophylla), 140 g ai/ha, post-emergent, read-out: Visual Growth Reduction (%) 14 Days After Application EPHHL) | pest or weed control at 70 g/ha [2, 3] | pest or weed control at 70 g/ha [2, 6] | pest or weed control at 140 g/ha [2, 6]
75 to 84%: pest or weed control at 70 g/ha [2, 5] | pest or weed control at 140 g/ha [2, 5] | pest or weed control at 140 g/ha [2, 7]

Nc1c(F)c(-c2ccc(OC(F)F)c(F)c2)nc(C(=O)O)c1Cl [Compound 92, 4-amino-3-chloro-6-(4-(difluoromethoxy)-3-fluorophenyl)-5-fluoropicolinic acid]
30 to 44%: pest or weed control at 70 g/ha ([1]; BRSNN: oilseed-rape, canola (Brassica napus), application rate 70 g ai/ha, read-out: Visual Growth Reduction (%) 14 Days After Application, BRSNN) | pest or weed control at 70 g/ha [2, 11] | pest or weed control at 70 g/ha [2, 8]
95 to 100%: pest or weed control at 70 g/ha ([1]; EPHHL: wild poinsettia (Euphorbia heterophylla), application rate 70 g ai/ha, read-out: Visual Growth Reduction (%) 14 Days After Application, EPHHL) | pest or weed control at 140 g/ha ([1]; EPHHL: wild poinsettia (Euphorbia heterophylla), application rate 140 g ai/ha, read-out: Visual Growth Reduction (%) 14 Days After Application, EPHHL)
85 to 94%: pest or weed control at 70 g/ha ([1]; CHEAL: lambsquarters (Chenopodium album), application rate 70 g ai/ha, read-out: Visual Growth Reduction (%) 14 Days After Application, CHEAL) | pest or weed control at 140 g/ha ([1]; CHEAL: lambsquarters (Chenopodium album), application rate 140 g ai/ha, read-out: Visual Growth Reduction (%) 14 Days After Application, CHEAL)
45 to 59%: pest or weed control at 70 g/ha ([1]; AMARE: redroot pigweed (Amaranthus retroflexus), application rate 70 g ai/ha, read-out: Visual Growth Reduction (%) 14 Days After Application, AMARE) | pest or weed control at 140 g/ha ([1]; BRSNN: oilseed-rape, canola (Brassica napus), application rate 140 g ai/ha, read-out: Visual Growth Reduction (%) 14 Days After Application, BRSNN) | pest or weed control at 140 g/ha [2, 11] | pest or weed control at 140 g/ha [2, 8]
0 to 29%: pest or weed control at 70 g/ha ([1]; ABUTH: velvetleaf (Abutilon theophrasti), application rate 70 g ai/ha, read-out: Visual Growth Reduction (%) 14 Days After Application, ABUTH) | pest or weed control at 140 g/ha ([1]; ABUTH: velvetleaf (Abutilon theophrasti), application rate 140 g ai/ha, read-out: Visual Growth Reduction (%) 14 Days After Application, ABUTH) | pest or weed control at 70 g/ha ([1]; VIOTR: wild pansy (Viola tricolor), application rate 70 g ai/ha, read-out: Visual Growth Reduction (%) 14 Days After Application, VIOTR) | pest or weed control at 140 g/ha ([1]; VIOTR: wild pansy (Viola tricolor), application rate 140 g ai/ha, read-out: Visual Growth Reduction (%) 14 Days After Application, VIOTR) | pest or weed control at 70 g/ha [2, 3] | pest or weed control at 140 g/ha [2, 3] | pest or weed control at 70 g/ha [2, 6] | pest or weed control at 140 g/ha [2, 6]
75 to 84%: pest or weed control at 140 g/ha ([1]; HELAN: sunflower (Helianthus annuus), application rate 140 g ai/ha, read-out: Visual Growth Reduction (%) 14 Days After Application, HELAN)
147 to 149 °C: melting point
60 to 74%: pest or weed control at 140 g/ha ([1]; AMARE: redroot pigweed (Amaranthus retroflexus), application rate 140 g ai/ha, read-out: Visual Growth Reduction (%) 14 Days After Application, AMARE) | pest or weed control at 70 g/ha ([1]; HELAN: sunflower (Helianthus annuus), application rate 70 g ai/ha, read-out: Visual Growth Reduction (%) 14 Days After Application, HELAN) | pest or weed control at 70 g/ha [2, 4] | pest or weed control at 140 g/ha [2, 4] | pest or weed control at 70 g/ha [2, 10] | pest or weed control at 140 g/ha [2, 10]
